In EP4656640A1, “IRAK4 DEGRADER AND USE THEREOF” (Shanghai Qilu Pharmaceutical Research and Development …, priority 2023, dated 2024):
Like-named read-outs stand apart in the source and are kept apart here.

Key:
[1] = biological target: T1, IRAK4 (Homo sapiens, UniProt Q9NWZ3); test: Degradation of IRAK4 in SU-DHL-2 cells (flow cytometry); type: cell-based; design: The degradation level of IRAK4 protein in SU-DHL-2 cell line by the compounds was detected by flow cytometry; endogenous in cells; host or cells: SU-DHL-2; OCI-LY3
T1 sequence (Q9NWZ3 1-460): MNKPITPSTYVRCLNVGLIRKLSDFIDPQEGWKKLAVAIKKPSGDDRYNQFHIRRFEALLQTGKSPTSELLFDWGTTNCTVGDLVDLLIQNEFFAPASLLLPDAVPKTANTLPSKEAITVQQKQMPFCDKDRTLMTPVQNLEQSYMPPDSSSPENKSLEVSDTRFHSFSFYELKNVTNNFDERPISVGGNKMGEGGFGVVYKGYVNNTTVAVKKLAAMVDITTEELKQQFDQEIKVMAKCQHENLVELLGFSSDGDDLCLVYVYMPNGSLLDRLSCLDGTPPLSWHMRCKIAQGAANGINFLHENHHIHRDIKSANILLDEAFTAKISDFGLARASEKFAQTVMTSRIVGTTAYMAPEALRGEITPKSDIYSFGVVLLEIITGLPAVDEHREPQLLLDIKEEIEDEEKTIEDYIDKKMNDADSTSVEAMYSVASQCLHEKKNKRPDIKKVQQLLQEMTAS
Method: The degradation level of IRAK4 protein in SU-DHL-2 cell line by the compounds was detected by flow cytometry.
Step 2: On day 1, the cells were seeded at a density of 2 × 10^5 cells per well in 100 µL in a 96-well plate. The compounds were dissolved in DMSO to a final concentration of 10 mM, and then diluted with culture medium at a 1:5 concentration gradient to prepare 10 concentrations. The diluted solutions were added to the cells to obtain a maximum final concentration of 2 µM. Wells containing cells treated with 0.1% DMSO served as the […] The cells were incubated at 37°C in a 5% CO2 incubator for 24 hours.
Step 3: After centrifugation, the cells were washed with FACS buffer. The cells were stained for viability discrimination using the LIVE/DEAD™ Fixable Blue Dead Cell Stain Kit, and surface staining of monocytes was performed with PE Mouse Anti-Human CD14, followed by incubation at 4°C for 30 minutes.
Step 4: After centrifugation, the cells were washed with FACS buffer. Fix buffer I, equal in volume to the cultured cells, was added, and the cells were fixed at 37°C for 10 minutes.
Step 5: After centrifugation, the cells were washed with FACS buffer. 150 µL of Perm III reagent was added, and the cells were incubated at 4°C for 30 minutes to permeabilize the membranes. After centrifugation, the cells were washed with FACS buffer.
Flow cytometry analysis was performed using a flow cytometer.
The flow cytometry data were analyzed using Flowjo software. Data presentation and DC50 (half-maximal degradation concentration) calculation were performed using Prism 8.0.2 (GraphPad).

[2] = biological target: T1, IRAK4; type: cell-based; design: endogenous in cells; host or cells: OCI-LY3; conditions: read-out: OCI-LY3 DC50
[3] = SU-DHL-2 cells, 24 hours incubation; read-out: SU-DHL-2 DC50

| Structure (SMILES) | DC50 ([1]; read-out: SU-DHL-2 DC50) [nM] | other results |
| --- | --- | --- |
| Cn1c(=O)n(C2CCC(=O)NC2=O)c2cccc(C#CCOC[C@H]3C[C@H]3CN3CCC4(CC3)CC(n3cc(NC(=O)c5cnn6ccc(N7C[C@H]8C[C@@H]7CO8)nc56)c(C(F)F)n3)C4)c21 (relative stereo) [Example 44] | – | DC50 [1, 3]: 5.4 nM |
| Cn1c(=O)n(C2CCC(=O)NC2=O)c2cccc(C#CCOCCN3CCC4(CC3)CC(n3cc(NC(=O)c5cnn6ccc(N7C[C@H]8C[C@@H]7CO8)nc56)c(C(F)F)n3)C4)c21 (some centres unmarked) [Example 1] | – | DC50 [1, 3]: 1.4 nM; DC50 ([2]; OCI-LY3 cells): 0.4 nM |
| Cn1c(=O)n(C2CCC(=O)NC2=O)c2cccc(C#CCOCCCN3CCC4(CC3)CC(n3cc(NC(=O)c5cnn6ccc(N7C[C@H]8C[C@@H]7CO8)nc56)c(C(F)F)n3)C4)c21 (some centres unmarked) [Example 2] | 1.1 | DC50 [2]: 0.4 nM |
| Cn1c(=O)n(C2CCC(=O)NC2=O)c2cccc(C#CCN3CCC(CN4CCC5(CC4)CC(n4cc(NC(=O)c6cnn7ccc(N8C[C@H]9C[C@@H]8CO9)nc67)c(C(F)F)n4)C5)CC3)c21 (some centres unmarked) [Example 3] | 11 | DC50 [2]: 8 nM |
| Cn1c(=O)n(C2CCC(=O)NC2=O)c2cccc(C#CCOCCCCN3CCC4(CC3)CC(n3cc(NC(=O)c5cnn6ccc(N7C[C@H]8C[C@@H]7CO8)nc56)c(C(F)F)n3)C4)c21 (some centres unmarked) [Example 4] | 8 | DC50 [2]: 5 nM |
| Cn1c(=O)n(C2CCC(=O)NC2=O)c2cccc(C#CCOCC(C)(C)C(=O)N3CCC4(CC3)CC(n3cc(NC(=O)c5cnn6ccc(N7C[C@H]8C[C@@H]7CO8)nc56)c(C(F)F)n3)C4)c21 (some centres unmarked) [Example 5] | – | DC50 ([1]; read-out: SU-DHL-2 DC50; SU-DHL-2 cells, 24 hours incubation): 27 nM; DC50 ([2]; OCI-LY3 cells): 28 nM |
| Cn1c(=O)n(C2CCC(=O)NC2=O)c2cccc(C#CCOC3CCC(N4CCC5(CC4)CC(n4cc(NC(=O)c6cnn7ccc(N8C[C@H]9C[C@@H]8CO9)nc67)c(C(F)F)n4)C5)CC3)c21 (some centres unmarked) [Example 33] | 6.5 | – |
| Cn1c(=O)n(C2CCC(=O)NC2=O)c2cccc(C#CC(C)(C)N3CCC(CN4CCC5(CC4)CC(n4cc(NC(=O)c6cnn7ccc(N8C[C@H]9C[C@@H]8CO9)nc67)c(C(F)F)n4)C5)CC3)c21 (some centres unmarked) [Example 34] | 21 | – |
| Cn1c(=O)n(C2CCC(=O)NC2=O)c2cccc(C#CCC3CCC(N4CCC5(CC4)CC(n4cc(NC(=O)c6cnn7ccc(N8C[C@H]9C[C@@H]8CO9)nc67)c(C(F)F)n4)C5)CC3)c21 (some centres unmarked) [Example 35] | 5 | – |
| Cn1c(=O)n(C2CCC(=O)NC2=O)c2cccc(C#CCOCCN3CCC4(CCC(n5cc(NC(=O)c6cnn7ccc(N8C[C@H]9C[C@@H]8CO9)nc67)c(C(F)F)n5)CC4)CC3)c21 (some centres unmarked) [Example 37] | – | DC50 [1, 3]: 24 nM |
| Cn1c(=O)n(C2CCC(=O)NC2=O)c2cccc(C#CCOC3CC(N4CCC5(CCC(n6cc(NC(=O)c7cnn8ccc(N9C[C@H]%10C[C@@H]9CO%10)nc78)c(C(F)F)n6)CC5)CC4)C3)c21 (some centres unmarked) [Example 38] | 68 | – |
| Cn1c(=O)n(C2CCC(=O)NC2=O)c2cccc(C#CCOC3CN(C(=O)N4CCC5(CCC(n6cc(NC(=O)c7cnn8ccc(N9C[C@H]%10C[C@@H]9CO%10)nc78)c(C(F)F)n6)CC5)CC4)C3)c21 (some centres unmarked) [Example 39] | 17 | – |
| Cn1c(=O)n(C2CCC(=O)NC2=O)c2cccc(C#CCOC3CC(CN4CCC5(CCC(n6cc(NC(=O)c7cnn8ccc(N9C[C@H]%10C[C@@H]9CO%10)nc78)c(C(F)F)n6)CC5)CC4)C3)c21 (some centres unmarked) [Example 40] | – | DC50 [1, 3]: 33 nM |
| Cn1c(=O)n(C2CCC(=O)NC2=O)c2cccc(C#CCOC3CCN(C(=O)N4CCC5(CCC(n6cc(NC(=O)c7cnn8ccc(N9C[C@H]%10C[C@@H]9CO%10)nc78)c(C(F)F)n6)CC5)CC4)CC3)c21 (some centres unmarked) [Example 43] | 61 | – |
| Cn1c(=O)n(C2CCC(=O)NC2=O)c2cccc(C#CCOC3CCC(CN4CCC5(CCC(n6cc(NC(=O)c7cnn8ccc(N9C[C@H]%10C[C@@H]9CO%10)nc78)c(C(F)F)n6)CC5)CC4)CC3)c21 (some centres unmarked) [Example 46] | – | DC50 [1, 3]: 13 nM |
| COc1cc2nn(C3CCC4(CC3)CCN(CC3CCN(c5ccc6c(c5)C(=O)N(C5CCC(=O)NC5=O)C6=O)CC3)CC4)cc2cc1C(=O)Nc1cnc2cccnn12 (centres unmarked) [Example 47] | 0.5 | – |
| COc1cc2nn(C3CCC4(CC3)CCN(CC3CCN(c5ccc6c(c5)C(=O)N(C5CCC(=O)NC5=O)C6=O)CC3)CC4)cc2cc1NC(=O)c1cnn2cccnc12 (centres unmarked) [Example 48] | 1 | – |

| Structure (SMILES) | DC50 ([1]; read-out: SU-DHL-2 DC50) [nM] | other results |
| --- | --- | --- |
| Cn1c(=O)n(C2CCC(=O)NC2=O)c2cccc(C#CC(C)(C)N3CC(C(=O)N4CCC5(CC4)CC(n4cc(NC(=O)c6cnn7ccc(N8C[C@H]9C[C@@H]8CO9)nc67)c(C(F)F)n4)C5)C3)c21 (some centres unmarked) [Example 50] | 4 | – |
| Cn1c(=O)n(C2CCC(=O)NC2=O)c2cccc(C#CCOC34CCC(C(=O)N5CCC6(CC5)CC(n5cc(NC(=O)c7cnn8ccc(N9C[C@H]%10C[C@@H]9CO%10)nc78)c(C(F)F)n5)C6)(CC3)CC4)c21 (some centres unmarked) [Example 51] | 7 | – |
| Cn1c(=O)n(C2CCC(=O)NC2=O)c2cccc(C#CC(C)(C)N3CC[C@@H](C(=O)N4CCC5(CC4)CC(n4cc(NC(=O)c6cnn7ccc(N8C[C@H]9C[C@@H]8CO9)nc67)c(C(F)F)n4)C5)C3)c21 (some centres unmarked) [Example 54] | 17 | – |
| Cn1c(=O)n(C2CCC(=O)NC2=O)c2cccc(C#CC(C)(C)N3CC[C@H](C(=O)N4CCC5(CC4)CC(n4cc(NC(=O)c6cnn7ccc(N8C[C@H]9C[C@@H]8CO9)nc67)c(C(F)F)n4)C5)C3)c21 (some centres unmarked) [Example 55] | 7 | – |
| Cn1c(=O)n(C2CCC(=O)NC2=O)c2cccc(C#CCOc3ccc(CN4CCC5(CC4)CC(n4cc(NC(=O)c6cnn7ccc(N8C[C@H]9C[C@@H]8CO9)nc67)c(C(F)F)n4)C5)cc3)c21 (some centres unmarked) [Example 57] | 22 | – |
| Cn1c(=O)n(C2CCC(=O)NC2=O)c2cccc(C#CCN3CC(C(=O)N4CCC5(CC4)CC(n4cc(NC(=O)c6cnn7ccc(N8C[C@H]9C[C@@H]8CO9)nc67)c(C(F)F)n4)C5)C3)c21 (some centres unmarked) [Example 58] | 5 | – |
| Cn1c(=O)n(C2CCC(=O)NC2=O)c2cccc(C#CCN3CC[C@H](C(=O)N4CCC5(CC4)CC(n4cc(NC(=O)c6cnn7ccc(N8C[C@H]9C[C@@H]8CO9)nc67)c(C(F)F)n4)C5)C3)c21 (some centres unmarked) [Example 59] | 3 | – |
| Cn1c(=O)n(C2CCC(=O)NC2=O)c2cccc(C#CCOC3CCN(CC4CCC5(CC4)CC(n4cc(NC(=O)c6cnn7ccc(N8C[C@H]9C[C@@H]8CO9)nc67)c(C(F)F)n4)C5)CC3)c21 (some centres unmarked) [Example 61] | 4 | – |
| Cn1c(=O)n(C2CCC(=O)NC2=O)c2cccc(C#CCN3CCC(CN4CCC5(CC4)CC(n4cc(NC(=O)c6cnn7ccc(N8C[C@H]9C[C@@H]8CO9)nc67)c(C(F)F)n4)C5)CC3=O)c21 (some centres unmarked) [Example 62] | 1.2 | – |
| COc1cc2nn(C3CCC4(CC3)CCN(C3CC(OCC#Cc5cccc6c5n(C)c(=O)n6C5CCC(=O)NC5=O)C3)CC4)cc2cc1C(=O)Nc1cnc2cccnn12 (centres unmarked) [Example 64] | 1 | – |
| COc1cc2nn(C3CC4(CCN(CC5CC(OCC#Cc6cccc7c6n(C)c(=O)n7C6CCC(=O)NC6=O)C5)CC4)C3)cc2cc1C(=O)Nc1cnc2cccnn12 (centres unmarked) [Example 65] | 2.8 | – |
| COc1cc2nn(C3CCC4(CC3)CCN(CC3CCN(c5ccc6c(c5)C(=O)N(C5CCC(=O)NC5=O)C6=O)CC3)CC4)cc2cc1NC(=O)c1cnc2cccnn12 (centres unmarked) [Example 67] | 45 | – |
| Cn1c(=O)n(C2CCC(=O)NC2=O)c2cccc(C#CCOC3CCN(CC4CCC5(CC4)CCC(n4cc(NC(=O)c6cnn7ccc(N8C[C@H]9C[C@@H]8CO9)nc67)c(C(F)F)n4)CC5)CC3)c21 (some centres unmarked) [Example 68] | 24 | – |
| Cn1c(=O)n(C2CCC(=O)NC2=O)c2cccc(C#CC(C)(C)C(=O)N3CCC4(CC3)CC(n3cc(NC(=O)c5cnn6ccc(N7C[C@H]8C[C@@H]7CO8)nc56)c(C(F)F)n3)C4)c21 (some centres unmarked) [Example 70] | 16 | – |
| Cn1c(=O)n(C2CCC(=O)NC2=O)c2cccc(C#CCO[C@H]3CC[C@H](C(=O)N4CCC5(CC4)CC(n4cc(NC(=O)c6cnn7ccc(N8C[C@H]9C[C@@H]8CO9)nc67)c(C(F)F)n4)C5)CC3)c21 (some centres unmarked) [Example 71] | 5 | – |
| Cn1c(=O)n(C2CCC(=O)NC2=O)c2cccc(C#CCO[C@H]3CC[C@@H](C(=O)N4CCC5(CC4)CC(n4cc(NC(=O)c6cnn7ccc(N8C[C@H]9C[C@@H]8CO9)nc67)c(C(F)F)n4)C5)CC3)c21 (some centres unmarked) [Example 72] | 4 | – |
